How the values were obtained:
MOMP channel = test: Single-channel ion-current measurement of MOMP in planar lipid bilayer (peptide binding and translocation); set-up: species or system Campylobacter jejuni (strain 85 H); details: for ion-current blockage of MOMP monomer: 3 µM peptide, +125 mV; for kon (association rate) / koff (dissociation rate): 10 µM peptide, single MOMP monomer (MOMP cis); for kon (association rate): DPhPC bilayer; for Ka (equilibrium binding constant): Ka = kon/koff; for on-rate (range given): Penta- and Hepta-arginine together; for koff (dissociation rate): koff = 1/τ; for association rate kon as a function of applied voltage: +150 to +250 mV, Penta- vs Hepta-arginine, Fig. 3A; for translocation across MOMP: concluded from voltage dependence of ion-current fluctuations; for residence time, cis vs trans peptide addition / frequency of binding events, cis vs trans peptide addition: control: peptide on cis (ground) side; for residence time, cis vs trans peptide addition: –125 to –250 mV; for frequency of binding events, cis vs trans peptide addition: –150 and –250 mV; for threshold potential for successful translocation: peptide trans, MOMP cis
Procedure: The planar lipid bilayer was formed using solvent free lipid bilayer technique, [29]. In brief, the cuvettes used for our bilayer experiments consist of cis (electrical ground and side of protein addition if not otherwise indicated) and trans chambers separated by a 25 µm thick Teflon film (Goodfellow, Cambridge, UK) carrying an aperture with a diameter of 40–70 µm. Prior to forming a lipid bilayer, the aperture is pre-painted with 1 μl of 1% hexadexane in hexane. 5% solution of DPhPC in hexane is commonly used as lipid stock. The chambers are filled with electrolyte solution which typically consists of 1 M KCl, 10 mM MES, pH 6.0 with a total solution volume of 2.5 ml. On top of the aqueous phase about 1 μl of the lipid stock solution is placed. After 10 min allowing for evaporation of solvent, the membrane is formed by raising and lowering the water level. To investigate the outer membrane protein of C. jejuni, MOMP was added to the cis (ground) side of the chamber to a final concentration of 5 ng/ml and the channel insertion was facilitated by rapid mixing of the content of the chamber while applying a transmembrane potential of −199 mV. Electrical recordings were made through a pair of Ag/AgCl electrodes (World Precision Instruments, Sarasota, FL, USA), attached to an Axon Instruments 200B amplifier (Axon Instruments Inc., Sunnyvale, CA, USA) in the voltage clamp mode. Data were filtered by a low pass Bessel filter at 10 kHz and directly saved into the computer memory with a sampling frequency of 50 kHz. Data analysis was performed using Clampfit software of version 10.4 (Axon Instruments Inc., Sunnyvale, CA, USA). To obtain quantitative information on the interaction of peptides with the channel we assume that peptide binding or penetration to the channel cause sufficiently strong reduction of the ion-current compared to the typical background noise. […] This is even more pronounced for longer peptides (Fig. 1C and D).
Fig. 1 Typical ion-conductance traces of monomeric MOMP in presence of poly-arginines at +125 mV. A. In the absence of peptides; B. 3 µM of Tri-arginine; C. […] Experimental conditions: 1 M KCl, 10 mM MES, pH 6.0, T= 20 °C. The peptide is added to the trans compartment of the cuvette corresponding to the electrode at positive voltage. For the sake of clarity the traces were filtered at 5 kHz. MOMP is added on the cis (ground) side (n = 4).
For further analysis we should note that in our experiment we work under dilute concentrations and thus, the number of entries is in good approximation proportional to the concentration of the peptides in solution. The on-rate kon (association rate) is obtained by counting the number of ion-current blockage events per time n [s^−1] divided by the concentration [c] of the peptide, [26], [29], [30]. Furthermore, in some cases we have trimeric MOMP and the ion-current blockages may originate independently from one of the three monomers. kon=n/3[c]
On the other hand the opening is a statistical event and correlated to the strength of the binding. A channel which is closed at t = 0 will have the probability R(t) to open at time t. Within the above described simple binding model an exponential function R(t) = e^-t/τ. Fitting the life-time distribution of a closed channel by an exponential parameter τ (or dwell time) yields the off-rate (dissociation rate) koff = 1/τ [30]. The equilibrium binding constant Ka [M^−1] of the peptide to the channel is given by the ratio of the rates Ka = kon/koff.
Fig. 2 Analysis of the ion-current fluctuations. A. Hepta-arginine concentration dependence of binding events; data were analysed at applied voltages, +150 and +250 mV; and B. Frequency of binding events of the peptide (10 µM) vs. applied transmembrane potential. Experimental conditions: 1 M KCl, 10 mM MES, pH 6.0, T= 20 °C. MOMP is added on the cis (ground) side (n = 4).
A. Voltage dependence of the on-rate; and B. off-rate. […]

Nocardia channel = details: ref [25]; cited from earlier work
Source text: Binding and translocation can be distinguished using the voltage dependency of the association and disassociation rates. If the time spent by a charged molecule inside the channel increases with increasing voltage, we conclude that the molecule is pulled inside on one side of the channel without being translocated. On the other hand, if the residence time decreases with increasing voltage we conclude that the molecule is able to follow the electric field gradient leaving faster to the other side. In the case of Hepta-arginine, the residence time increased from ~100 to 410 µs with increa ...

[1] = trans side, 1 M KCl, 10 mM MES, pH 6.0, 20 °C, n = 4
[2] = +150 mV, trans side, 1 M KCl, 10 mM MES, pH 6.0, 20 °C, n = 4
[3] = +150 mV, 1 M KCl, 10 mM MES, pH 6.0, 20 °C
[4] = +150 mV, 10 µM, trans side, 1 M KCl, 10 mM MES, pH 6.0, 20 °C
[5] = +175 mV, trans side, 1 M KCl, 10 mM MES, pH 6.0, 20 °C, n = 4
[6] = +175 mV, 1 M KCl, 10 mM MES, pH 6.0, 20 °C
[7] = +250 mV, trans side, 1 M KCl, 10 mM MES, pH 6.0, 20 °C, n = 4
[8] = +250 mV, 1 M KCl, 10 mM MES, pH 6.0, 20 °C
[9] = 1 M KCl, 10 mM MES, pH 6.0, 20 °C

Substance: Tri-arginine
- strength of channel–peptide interaction (order) (MOMP channel): Hepta-arginine > Penta-arginine > Tri-arginine
- ion-current blockage of MOMP monomer (MOMP channel; [1]): visible but very short and not fully resolvable monomer blockages
- residence time (MOMP channel; +125 to +250 mV, 10 µM, trans side (MOMP cis), corresponds to time resolution of the instrument, 1 M KCl, 10 mM MES, pH 6.0, 20 °C, n = 4): ~ 70 ± 5 µs

Substance: H-RRRRR-OH [Penta-arginine, H-RRRRR-OH trifluoroacetate salt, Mw: 0.798 kDa, from Bachem AG]
- strength of channel–peptide interaction (order) (MOMP channel): Hepta-arginine > Penta-arginine > Tri-arginine
- ion-current blockage of MOMP monomer (MOMP channel; [1]): complete monomer blockage
- kon (association rate) (MOMP channel; [2]): 12.9 ± 1.2 (M^−1 s^−1) × 10^6
- Ka (equilibrium binding constant) (MOMP channel; [3]): 2.0 ± 0.5 (M^−1) × 10^3
- on-rate (range given) (MOMP channel; [4]): 13 ± 2 10^6 M^−1 s^−1
- koff (dissociation rate) (MOMP channel; [2]): 6.2 ± 0.3 (s^−1) × 10^3
- association rate kon as a function of applied voltage (MOMP channel): almost identical increasing values
- kon (association rate) (MOMP channel; [5]): 20.4 ± 1.2 (M^−1 s^−1) × 10^6
- Ka (equilibrium binding constant) (MOMP channel; [6]): 4.1 ± 0.3 (M^−1) × 10^3
- koff (dissociation rate) (MOMP channel; [5]): 5.0 ± 0.6 (s^−1) × 10^3
- kon (association rate) (MOMP channel; [7]): 34.7 ± 0.8 (M^−1 s^−1) × 10^6
- Ka (equilibrium binding constant) (MOMP channel; [8]): 3.3 ± 0.2 (M^−1) × 10^3
- koff (dissociation rate) (MOMP channel; [7]): 10.3 ± 0.8 (s^−1) × 10^3
- koff relative to Hepta-arginine (MOMP channel; Fig. 3B, 10 µM, trans side): about twice higher off-rates
- translocation across MOMP (MOMP channel): translocate across the MOMP channel
- residence time, cis vs trans peptide addition (MOMP channel; n = 4): did not reveal significant differences
- frequency of binding events, cis vs trans peptide addition (MOMP channel; n = 4): did not reveal significant differences
- permeation vs voltage (MOMP channel; increasing voltages): permeated faster with increasing voltages
- threshold potential for successful translocation (MOMP channel; [9]): +175 mV
- voltage for pulling peptide through Nocardia channel (Nocardia channel): > –175 mV

Substance: H-RRRRRRR-OH [Hepta-arginine, H-RRRRRRR-OH trifluoro acetate salt, Mw: 1.111 kDa, from Bachem AG]
- strength of channel–peptide interaction (order) (MOMP channel): Hepta-arginine > Penta-arginine > Tri-arginine
- ion-current blockage of MOMP monomer (MOMP channel; [1]): complete monomer blockage
- number of binding events vs peptide concentration (MOMP channel; 1 to 10 µM, +150 and +250 mV, n = 4): the number of binding events increased with the concentration of the peptide
- binding vs translocation, low voltage (MOMP channel; +125 to +175 mV, 10 µM): binds to channel without being translocated
- kon (association rate) (MOMP channel; [2]): 14.5 ± 1.5 (M^−1 s^−1) × 10^6
- Ka (equilibrium binding constant) (MOMP channel; [3]): 4.4 ± 0.3 (M^−1) × 10^3
- on-rate (range given) (MOMP channel; [4]): 13 ± 2 10^6 M^−1 s^−1
- koff (dissociation rate) (MOMP channel; [2]): 3.2 ± 0.1 (s^−1) × 10^3
- association rate kon as a function of applied voltage (MOMP channel): almost identical increasing values
- kon (association rate) (MOMP channel; [5]): 22.2 ± 0.8 (M^−1 s^−1) × 10^6
- Ka (equilibrium binding constant) (MOMP channel; [6]): 8.5 ± 0.2 (M^−1) × 10^3
- koff (dissociation rate) (MOMP channel; [5]): 2.6 ± 0.3 (s^−1) × 10^3
- reduction in residence time with voltage (MOMP channel; +175 to +250 mV): reduction of one-fold
- binding vs translocation, high voltage (MOMP channel; +175 to +250 mV, 10 µM): successful translocation of the peptide
- kon (association rate) (MOMP channel; [7]): 39.1 ± 0.5 (M^−1 s^−1) × 10^6
- Ka (equilibrium binding constant) (MOMP channel; [8]): 7.7 ± 0.3 (M^−1) × 10^3
- koff (dissociation rate) (MOMP channel; [7]): 5.0 ± 0.8 (s^−1) × 10^3
- translocation across MOMP (MOMP channel): translocate across the MOMP channel
- residence time, cis vs trans peptide addition (MOMP channel; n = 4): did not reveal significant differences
- frequency of binding events, cis vs trans peptide addition (MOMP channel; n = 4): did not reveal significant differences
- ion-current blockage, reverse addition (MOMP channel; peptide on cis (ground) side, MOMP on trans side, negative voltages): strong monomer blockages with negative voltages
- residence time, end of decrease (MOMP channel; peptide on cis (ground) side, MOMP on trans side, –125 to –250 mV (Fig. S5), final value, 1 M KCl, 10 mM MES, pH 6.0, 20 °C, n = 4): 200 µs
- residence time, start of decrease (MOMP channel; peptide on cis (ground) side, MOMP on trans side, –125 to –250 mV (Fig. S5), starting value, 1 M KCl, 10 mM MES, pH 6.0, 20 °C, n = 4): 410 µs
- threshold potential for successful translocation (MOMP channel; [9]): +175 mV
- voltage for pulling peptide through Nocardia channel (Nocardia channel): > −150 mV

Reference: PMC5614690, “Peptide translocation across MOMP, the major outer membrane channel from Campylobacter jejuni” (Biochemistry and Biophysics Reports, 2017)
